{"source": "patent US7186862B2", "about": "“Microbicidal agents on the basis of biphenylbenzamide derivatives” (Bayer CropScience AG, priority 2002, dated 2007)"}
{"experiment": "logP determination by HPLC on reversed-phase column (EEC Directive 79/831)", "type": "physicochemical", "details": "reversed-phase C18, 43° C., 0.1% aqueous phosphoric acid/acetonitrile gradient", "procedure": "The logP values given in the tables and preparation examples above are determined in accordance with EEC Directive 79/831 Annex V.48 by HPLC (High Performance Liquid Chromatography) on a reversed-phase column (C18). Temperature: 43° C. The determination is carried out in the acidic range at pH 2.3 using the mobile phases 0.1% aqueous phosphoric acid and acetonitrile; linear gradient from 10% acetonitrile to 90% acetonitrile. Calibration is carried out using unbranched […] (of 3 to 16 carbon atoms) with known logP values (determination of the logP values by the retention time using linear interpolation between two successive alkanones)."}
{"smiles": "O=C(Nc1ccccc1-c1ccc(C(F)(F)F)cc1)c1ccccc1C(F)(F)F", "note": "[Compound 6]", "logP (pH 2.3)": 4.05}
{"smiles": "O=C(Nc1ccccc1-c1ccc(OC(F)(F)F)cc1)c1ccccc1C(F)(F)F", "note": "[Compound 8]", "logP (pH 2.3)": 4.20}
{"smiles": "CSc1ccc(-c2ccccc2NC(=O)c2ccccc2C(F)(F)F)cc1", "note": "[Compound 9]", "logP (pH 2.3)": 3.89}
{"smiles": "O=C(Nc1ccccc1-c1ccc(C(F)(F)F)cc1)c1ccccc1Cl", "note": "[Compound 11]", "logP (pH 2.3)": 3.89}
{"smiles": "O=C(Nc1ccccc1-c1ccc(OC(F)(F)F)cc1)c1ccccc1Cl", "note": "[Compound 13]", "logP (pH 2.3)": 4.08}
{"smiles": "CSc1ccc(-c2ccccc2NC(=O)c2ccccc2Cl)cc1", "note": "[Compound 14]", "logP (pH 2.3)": 3.75}
{"smiles": "O=C(Nc1ccccc1-c1ccc(F)cc1)c1ccccc1Cl", "note": "[Compound 15]", "logP (pH 2.3)": 3.40}
{"smiles": "O=C(Nc1ccccc1-c1ccc(Br)cc1)c1ccccc1Br", "note": "[Compound 16]", "logP (pH 2.3)": 3.91}
{"smiles": "O=C(Nc1ccccc1-c1ccc(C(F)(F)F)cc1)c1ccccc1Br", "note": "[Compound 17]", "logP (pH 2.3)": 3.94}
{"smiles": "O=C(Nc1ccccc1-c1ccc(OC(F)(F)F)cc1)c1ccccc1Br", "note": "[Compound 19]", "logP (pH 2.3)": 4.08}
{"smiles": "CSc1ccc(-c2ccccc2NC(=O)c2ccccc2Br)cc1", "note": "[Compound 20]", "logP (pH 2.3)": 3.78}
{"smiles": "O=C(Nc1ccccc1-c1ccc(F)cc1)c1ccccc1Br", "note": "[Compound 21]", "logP (pH 2.3)": 3.42}
{"smiles": "Cc1ccccc1C(=O)Nc1ccccc1-c1ccc(Br)cc1", "note": "[Compound 22]", "logP (pH 2.3)": 3.86}
{"smiles": "Cc1ccccc1C(=O)Nc1ccccc1-c1ccc(C(F)(F)F)cc1", "note": "[Compound 23]", "logP (pH 2.3)": 3.86}
{"smiles": "Cc1ccccc1C(=O)Nc1ccccc1-c1cccc(Cl)c1", "note": "[Compound 24]", "logP (pH 2.3)": 3.72}
{"smiles": "Cc1ccccc1C(=O)Nc1ccccc1-c1ccc(OC(F)(F)F)cc1", "note": "[Compound 25]", "logP (pH 2.3)": 4.03}
{"smiles": "CSc1ccc(-c2ccccc2NC(=O)c2ccccc2C)cc1", "note": "[Compound 26]", "logP (pH 2.3)": 3.72}
{"smiles": "O=C(Nc1ccccc1-c1ccc(Br)cc1)c1ccccc1I", "note": "[Compound 27]", "logP (pH 2.3)": 4.00}
{"smiles": "O=C(Nc1ccccc1-c1ccc(C(F)(F)F)cc1)c1ccccc1I", "note": "[Compound 28]", "logP (pH 2.3)": 4.03}
{"smiles": "O=C(Nc1ccccc1-c1cccc(Cl)c1)c1ccccc1I", "note": "[Compound 29]", "logP (pH 2.3)": 3.86}
{"smiles": "O=C(Nc1ccccc1-c1ccc(OC(F)(F)F)cc1)c1ccccc1I", "note": "[Compound 30]", "logP (pH 2.3)": 4.21}
{"smiles": "CSc1ccc(-c2ccccc2NC(=O)c2ccccc2I)cc1", "note": "[Compound 31]", "logP (pH 2.3)": 3.86}
{"smiles": "O=C(Nc1ccccc1-c1ccc(F)cc1)c1ccccc1I", "note": "[Compound 32]", "logP (pH 2.3)": 3.55}
{"smiles": "O=C(Nc1ccccc1-c1ccc(F)cc1F)c1ccccc1C(F)(F)F", "note": "[Compound 36]", "logP (pH 2.3)": 3.41}
{"smiles": "O=C(Nc1ccccc1-c1ccc(OC(F)(F)F)c(F)c1)c1ccccc1C(F)(F)F", "note": "[Compound 37]", "logP (pH 2.3)": 4.08}
{"smiles": "O=C(Nc1ccccc1-c1ccc(Cl)c(C(F)(F)F)c1)c1ccccc1C(F)(F)F", "note": "[Compound 38]", "logP (pH 2.3)": 4.18}
{"smiles": "Cc1ccc(-c2ccccc2NC(=O)c2ccccc2C(F)(F)F)cc1C(F)(F)F", "note": "[Compound 39]", "logP (pH 2.3)": 4.18}
{"smiles": "O=C(Nc1ccccc1-c1ccc(OC(F)(F)F)c(C(F)(F)F)c1)c1ccccc1C(F)(F)F", "note": "[Compound 40]", "logP (pH 2.3)": 4.41}
{"smiles": "O=C(Nc1ccccc1-c1cc(Cl)cc(Cl)c1)c1ccccc1C(F)(F)F", "note": "[Compound 43]", "logP (pH 2.3)": 4.16}
{"smiles": "O=C(Nc1ccccc1-c1ccc(Cl)c(Cl)c1)c1ccccc1I", "note": "[Compound 44]", "logP (pH 2.3)": 4.06}
{"smiles": "O=C(Nc1ccccc1-c1ccc(Cl)cc1F)c1ccccc1C(F)(F)F", "note": "[Compound 45]", "logP (pH 2.3)": 3.68}
{"smiles": "O=C(Nc1ccccc1-c1ccc(Cl)cc1)c1ccccc1I", "note": "[Compound 46]", "logP (pH 2.3)": 3.74}
{"smiles": "O=C(Nc1ccc(F)cc1-c1ccc(Cl)c(Cl)c1)c1ccccc1C(F)(F)F", "note": "[Compound 47]", "logP (pH 2.3)": 4.11}
{"smiles": "O=C(Nc1c(F)cccc1-c1ccc(Cl)c(Cl)c1)c1ccccc1C(F)(F)F", "note": "[Compound 48]", "logP (pH 2.3)": 3.81}
{"smiles": "O=C(Nc1ccccc1-c1ccc(Cl)cc1)c1ccccc1Cl", "note": "[Compound 49]", "logP (pH 2.3)": 3.64}
